The values that follow come from the METLIN SMRT retention time set (Domingo-Almenara et al. 2019).

Structures are written as SMILES.

The series in a line: gradient 5% acetonitrile 3 min, to 50% in 2 min, to 85% in 15 min, held 3 min, 100 µL/min. The conditions noted are these: column: Zorbax Extend-C18 2.1 x 50 mm; eluents: water / acetonitrile, 0.1% formic acid. The method in brief: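 Values are retention times taken from adduct peaks that software picked and an analyst inspected. The pure standards were run as mixtures of ~100 molecules on HPLC linked to a quadrupole time-of-flight mass spectrometer, in positive and negative ionization mode. A Zorbax Extend-C18 column (2.1 × 50 mm, 1.8 μm) was used at 100 μL/min with water and acetonitrile, each including 0.1% formic acid.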
As for `CCCN1C(=O)c2cc(S(=O)(=O)N3CCCCC3C)ccc2Oc2cccnc21` (stereo not drawn), the RP-LC retention time turned out to be 1170 s. With `Cc1nn(-c2ccccc2)cc1C(=O)N1CCC(CC(=O)NCCc2c[nH]c3ccccc23)CC1` the figure was 751 s; with `Cc1cc(S(=O)(=O)N2CCC(OCc3noc(C4CCCO4)n3)CC2)ccc1Cl` (stereo not drawn), 1040 s.

On to `Cc1cc(C(=O)N2CC(c3nc4ccccc4[nH]3)C2)no1`, for which the RP-LC retention time was found to be 555 s.

`COc1ccc(-c2c(C(=O)O)nnn2-c2ccc3c(c2)OCO3)cc1` registered an RP-LC retention time of 745 s.

The molecule `CCC(C)NC(=O)Cn1ccc2ccc(-c3nnc(C)o3)cc21` (stereo not drawn) came in with an RP-LC retention time of 713 s. For `N#CCc1ccc(NC(=O)C2CCCN(S(=O)(=O)Cc3ccccc3Cl)C2)cc1` (stereo not drawn) the value was 905 s; for `Cn1cnc2ccc(-c3noc(CNC(=O)c4ccccc4)n3)cc21`, 624 s. Consider `O=C(Nc1cc(C(F)(F)F)ccc1Cl)c1ccc(N2C(=O)CCC2=O)cc1`, for which the RP-LC retention time came to 821 s. For `Cc1noc(-c2nn(C)c3c2CN(C(=O)NC(C)C)CC3)n1` the value was 640 s. For `Cc1ccccc1-c1noc(CCc2nnc3ccc(N4CCN(c5ccccn5)CC4)nn23)n1` the value was 647 s; for `O=C(NC1CCCCCCC1)C1CCCN(S(=O)(=O)c2c[nH]c(C(=O)N3CCCC3)c2)C1` (stereo not drawn), 854 s; for `O=S(=O)(NCC(c1ccco1)N1CCN(c2ccccc2F)CC1)c1cccs1` (stereo not drawn), 672 s.

On to `COc1cc(-c2noc(Cn3nc(-c4ccc(Br)cc4)ccc3=O)n2)cc(OC)c1OC`, for which the RP-LC retention time stood at 1020 s.

Consider `COCCN1C(=O)CCc2cc(NS(=O)(=O)c3cccc4nsnc34)ccc21`, for which the RP-LC retention time worked out at 716 s.

In turn, `O=C1C(=O)N(C2CCN(S(=O)(=O)c3ccc(F)c(Cl)c3)CC2)CCN1Cc1ccccc1` had an RP-LC retention time of 862 s. For the molecule `CCN1CCN(c2nc(F)c(F)c(S(=O)(=O)CCNc3cccc(C(F)(F)F)c3)c2F)CC1`, the RP-LC retention time was 731 s. Take `Cc1csc(-c2cc(S(=O)(=O)Nc3cccc(Cl)c3)c(C)s2)n1`: the RP-LC retention time was determined as 1060 s. Molecule `O=C(NCCc1csc(-c2cccs2)n1)C1CCN(S(=O)(=O)c2ccc(F)cc2)CC1` yielded an RP-LC retention time of 882 s. `Cc1noc(C)c1CCNC(=O)CN1C(=O)C2CCCCN2c2ccc(S(=O)(=O)N(C)C)cc21` (stereo not drawn) showed an RP-LC retention time of 796 s. For `CCc1ccc(-n2nnc(C(=O)NCCOC)c2-c2ccncc2)cc1` the value was 725 s.

Consider `CCN1C(=O)COc2ccc(-c3nc(NC(=O)c4ccc(Cl)cc4)sc3C)cc21`, for which the RP-LC retention time was 1130 s. With `Cc1cccc(Nc2c(-c3ccc(Cl)cc3)nc3cnccn23)c1C` the figure was 1110 s; with `CCOc1ccccc1C(=O)N1CCCCC1c1nncn1CC1CC1` (stereo not drawn), 746 s.

`CN1C(=O)C(CC(=O)N2CCCC2)Sc2ncccc21` (stereo not drawn) returned an RP-LC retention time of 626 s. With `Cc1nn(-c2ccc(C(=O)NC3CCCC3)cn2)c(C)c1C` the figure was 907 s; with `CC1(C)C(=O)N(CC(=O)Nc2ccc(F)c(Cl)c2)c2ccccc21`, 966 s. `Cc1ccc2c(c1)sc1nc(C)c(S(=O)(=O)Nc3ccc(Cl)cc3)c(=O)n12` yielded an RP-LC retention time of 1160 s.

The molecule `COc1ccc(-c2ccc(=O)n(CCCC(=O)Nc3ccccc3C(N)=O)n2)cc1OC` returned an RP-LC retention time of 619 s. For `COc1ccc(-c2noc(C3CCN(CC(=O)Nc4ccc5c(c4)OCO5)CC3)n2)cc1` the value was 703 s; for `CN(Cc1ccccc1)C(=O)C1CCCN(c2nnc(N3CCCC3=O)s2)C1` (stereo not drawn), 718 s; for `Cc1noc(C)c1Cc1c(C(=O)NCC23CCCC=C2NC(=O)CC3)noc1C` (stereo not drawn), 726 s.

In the case of `CC1=C(c2ccccc2)S(=O)(=O)N=C1N1CCCN(C(=O)c2ccccc2)CC1`, the RP-LC retention time was 697 s.

For `Cc1ccc(NC(=O)CN2CCc3ccccc3C2C(=O)N2CCCCC2)cc1Cl` (stereo not drawn), the RP-LC retention time amounted to 1030 s. With `C=CCNC(=O)c1cc2n(n1)CCCC2` the figure was 646 s; with `CCn1cc(C(=O)Nc2ccc(F)cc2)c(S(=O)(=O)N2CCSCC2)n1`, 976 s. For `Cc1cccc(CN2N=C(C(=O)N3CCCCC3)S(=O)(=O)c3ccccc32)c1` the value was 1010 s; for `C=Cc1ccc(CN2C(=O)N(c3ccc(F)cc3)c3ncccc3S2(=O)=O)cc1`, 886 s; for `CCC(C)NC(=O)N1CCN(c2cc(-c3cccc(F)c3)ncn2)CC1` (stereo not drawn), 650 s.

Consider `O=S(=O)(c1ccccc1C(F)(F)F)N1CCc2nc(-c3ccccc3)ncc2C1`, for which the RP-LC retention time was found to be 1110 s.

Consider `Cc1ccc(NS(=O)(=O)c2cc(-c3[nH]ncc3C(=O)N3CCOCC3)oc2C)cc1F`, for which the RP-LC retention time was 695 s. For `CCOc1ccccc1NC(=O)C1CN(S(C)(=O)=O)CC12CCCCC2` (stereo not drawn) the value was 682 s; for `O=C(Cn1c(=O)nc(-c2ccccc2)c2ccccc21)N1CCN(c2ccccn2)CC1`, 609 s; for `COCC(=O)N(CC(=O)N1CCc2sccc2C1COc1ccc(F)cc1)C(C)(C)C` (stereo not drawn), 906 s. Consider `COc1ccc(-c2nc(-c3ccc4oc(C)nc4c3)no2)c(C)c1`, for which the RP-LC retention time worked out at 1170 s. Take `CN1C(=O)CC[C@]2(C(=O)NCc3ccc(F)c(Cl)c3)CCCC[C@@H]12`: the RP-LC retention time worked out at 718 s.

Consider `Cc1sc(NC(=O)CCC2CCCCC2)nc1-c1ccc2c(c1)NC(=O)C(C)O2` (stereo not drawn), for which the RP-LC retention time amounted to 679 s. With `O=C(Cn1c(=O)c2cc(C3CC3)nn2c2ncccc21)Nc1cccc(Cl)c1` the figure was 848 s. For `Cn1c(=O)c(-c2c(Cl)cccc2Cl)cc2cnc(Nc3ccc(N4CCOCC4)cc3)nc21` the value was 1010 s; for `CCn1nnc2ccc(-c3noc(CNC(=O)c4ccccc4)n3)cc21`, 773 s.

Molecule `CCCCS(=O)(=O)NC1CCCC(OC(=O)Nc2ccc(F)cc2)C1` (stereo not drawn) yielded an RP-LC retention time of 883 s. For `COc1cc(C2CC(=O)c3c(C)nc(N4CCN(C)CC4)nc3C2)cc(OC)c1OC` (stereo not drawn) the value was 629 s; for `CCCCc1ccc(N2C(=O)CC(c3ccc(OC)c(OC)c3)CC2=O)cc1`, 1040 s.

`COc1cccc(N2C=C(C(=O)N3CCCC3)S(=O)(=O)c3ccc(Cl)cc32)c1` had an RP-LC retention time of 853 s.

Molecule `CN(C)C(=O)C1CCN(c2nc3ccc(-c4cccc(F)c4)nc3s2)CC1` showed an RP-LC retention time of 905 s. For `O=C(NC1CCN(c2cc(-c3ccc(F)cc3)[nH]n2)C1)c1cccc(F)c1` (stereo not drawn) the value was 735 s. With `CC(C)Cn1c(=O)c(N2CCN(S(=O)(=O)Cc3ccccc3)CC2)nc2ccncc21` the figure was 740 s.

Consider `Fc1cccc(-c2nn3c(-c4ccc5ccccc5n4)nnc3s2)c1`, for which the RP-LC retention time was determined as 987 s. For `CC(C)NC(=O)c1nsc(C(=O)NC2CC2)c1N` the value was 713 s; for `Cc1ccc(CN2CCN(CC(=O)Nc3ccc(Cl)cc3)C(=O)C2=O)cc1`, 836 s. `CCC(C)C(NC(=O)c1ccc(F)c(Cl)c1)C(=O)Nc1nc2ccccc2[nH]1` (stereo not drawn) registered an RP-LC retention time of 817 s. For the molecule `COC(=O)C1=C(C)NC(C)=C(C(=O)OC(C)(C)CN(C)CCC(c2ccccc2)c2ccccc2)C1c1cccc([N+](=O)[O-])c1` (stereo not drawn), the RP-LC retention time amounted to 1010 s. With `CN1C2CCC1CC(OC(=O)c1c[nH]c3ccccc13)C2` (stereo not drawn) the figure was 644 s; with `CCCCn1cc(S(=O)(=O)Nc2ccc(F)cc2)c2cccnc21`, 936 s. For `O=C1CCc2cc(NC(=O)c3ccc([N+](=O)[O-])cc3Cl)ccc2N1` the value was 807 s; for `CCOc1ccc(-c2nc(Cc3noc(-c4ccccn4)n3)c(C)o2)cc1`, 966 s. For the molecule `Cc1ccc(CNC(=O)C2(C)CCCN(C(=O)Nc3ccc(F)cc3)C2)cc1` (stereo not drawn), the RP-LC retention time stood at 899 s.

Regarding `Cn1nc(-c2nc(Cc3ccccc3)no2)c2c1CCN(C(=O)C1CCOC1)C2` (stereo not drawn), the RP-LC retention time came to 777 s. With `CCOC(=O)C1CCCN(C(=O)c2cccc3c2SCCC3=O)C1` (stereo not drawn) the figure was 780 s; with `COCCNC(=O)Cn1c(N2CCCC2)nc(COC)cc1=O`, 570 s. With `COc1ccc(Cn2nc3ccc(S(=O)(=O)N4CCCCC4)cn3c2=O)cc1F` the figure was 918 s.

Molecule `CCSc1nnc(-c2nn(C)c3c2CN(C(=O)c2cccc(Cl)c2)CC3)n1C` returned an RP-LC retention time of 788 s.

`COc1ccc(-c2nnc3n2N=C(c2ccc([N+](=O)[O-])cc2)CS3)cc1OC` displayed an RP-LC retention time of 723 s. With `Cc1ccc(-c2noc(CN3C(=O)COc4ccccc43)n2)cc1C` the figure was 1110 s. For `Cn1c(=O)n(C)c2cc(S(=O)(=O)C3CCCCC3)c(NC(=O)c3c(F)cccc3F)cc21` the value was 914 s; for `O=C(NCc1cccnc1)c1cc(-c2ccc3c(c2)OCO3)nc2ccccc12`, 665 s. For `Cc1ccc(S(=O)(=O)N2CCC(n3cnnc3-c3ccccc3)CC2)c(C)c1` the value was 844 s. `Cc1sc(NC(=O)C(F)(F)F)nc1-c1ccc2c(c1)NC(=O)CO2`: the RP-LC retention time was determined as 763 s.
